Reference: patent US7618957B2, “Perfluoroalkyl-containing complexes, process for their production as well as their use” (Bayer Schering Pharma Aktiengesellschaft, priority 2005, dated 2009)

Assays:
[1] = test system: VX2-tumor-carrying rabbits; experiment: MRT visualization of lymph node metastases and primary tumors in VX2-tumor-carrying rabbits; type: in vivo; conditions: rabbits with i.m. implanted VX2 tumors, 50 μmol of Gd/kg i.v.
Protocol: The pictures of FIGS. 1 and 2 show MR images of iliac lymph nodes precontrast as well as up to 24 hours after intravenous administration of 50 μmol of Gd/kg of body weight of the title substance of Example 1d) in rabbits with i.m. implanted VX2 tumors. […] Zones where there was no signal rise within the lymph node were diagnosed as metastases and confirmed histologically (H/E staining of the lymph node sections) (FIG. 1).
At later times (24 hours p.i.), this enhancement also propagates toward the center of the tumor.

[2] = Relaxivity (T1 and T2 relaxation times) in plasma (bovine), NMR pulse spectrometer Minispec PC 20; type: physicochemical; conditions: 40° C., 0.47 T
Protocol: (§1) The T1 and T2 relaxation times of water and plasma (bovine) with increasing concentrations of the gadolinium complexes of the title substances of Examples 1d, 5c, 14c, 15c contained therein were determined at 40° C. with use of an NMR pulse spectrometer (Minispec PC 20) at 0.47 T. The results are set forth in Table 1.

[3] = Plasma kinetics after intravenous administration in rats (ICP-AES); type: in vivo; conditions: 50 μmol of total gadolinium/kg i.v.; for Elimination Half-Life of Blood: calculated with WinNonlin from plasma concentrations
Protocol: After intravenous administration of 50 μmol of total gadolinium/kg of body weight of the gadolinium complexes of the title substances of Examples 1d, 5c, 14c, 15c in rats (n=3), blood samples were taken via a catheter in the common carotid artery at different points in time ([…].), the metal content was determined by means of atom emission spectrometry (ICP-AES) and converted to plasma values via a conversion factor (0.625). The elimination half-life was calculated by means of special software (WinNonlin) from the plasma concentrations.

[4] = test system: mice; experiment: Acute toxicity after one-time intravenous administration in mice (preliminary); type: in vivo; conditions: one-time i.v., observation period of 7 days
Protocol: After intravenous administration of the gadolinium complexes of the title substances of Examples 1d, 5c, 14c, 15c in mice (n=3; rate of injection: 2 ml/min), the acute systemic compatibility (LD50) was determined preliminarily. In each case, several dosages with an observation period of 7 days were examined. The acute toxicities that are to be expected can be seen in Table 1.

[5] = Excretion after intravenous administration in rats (ICP-AES); type: in vivo; conditions: 50 μmol of total gadolinium/kg i.v., 14 days after administration
Protocol: After intravenous administration of 50 μmol of total gadolinium/kg of body weight of the gadolinium complexes of the title substances of Examples 1d, 5c, 14c, 15c in rats (n=3), the metal content was determined in fractions up to 14 days after administration by means of atom emission spectrometry (ICP-AES) in the excretion media of urine and feces, as well as in the body (the rest of the body).

[6] = Relaxivity (T1 and T2 relaxation times) in water, NMR pulse spectrometer Minispec PC 20; type: physicochemical; conditions: 40° C., 0.47 T
Protocol: as §1

[7] = test system: arteriosclerotic plaque of WHHL rabbits; experiment: MRT visualization of arteriosclerotic plaque after intravenous administration; type: in vivo, Watanabe rabbits; conditions: 50 μmol of Gd/kg i.v., 6 or 24 hours after administration
Protocol: The pictures of FIG. 3 show MR images of the aorta 6 or 24 hours after intravenous administration of 50 μmol of Gd/kg of body weight of the title substances from Example 1d) and Example 14c in Watanabe rabbits (WHHL rabbits; genetically-induced arteriosclerosis) and in control animals without arteriosclerosis (white New Zealanders). […] The localization of the plaque, especially in the aortic arch as well as in the vascular passages, was confirmed by means of Sudan-3 staining. With this test, the suitability of the compounds according to the invention as markers for arteriosclerotic plaque could be shown.

[8] = test system: popliteal lymph nodes; experiment: MRT visualization of lymph nodes after intravenous administration in rats; type: in vivo; conditions: 50 μmol of Gd/kg i.v., up to 60 minutes p.i.
Description: By way of example, the pictures show MR images of popliteal lymph nodes at different points in time after intravenous administration of 50 μmol of Gd/kg of body weight of the title substance from Example 5c), title substance from Example 14c) and title substance from Example 15c) in rats.

[9] = test system: inflammatory muscle lesions and necrotic areas; experiment: MRT visualization of inflammatory lesions and necrotic areas in rats; type: in vivo; conditions: Rose Bengal/xenon lamp induced lesion, 50 μmol of Gd/kg i.v.
Protocol: By way of example, the pictures of FIG. 4 show MR images of inflammatory muscle lesions as well as necrotic areas at different points in time after intravenous administration of 50 μmol of Gd/kg of body weight of the title substance of Example 14c in rats. The inflammation/necrosis was induced by intravenous administration of Rose Bengal (20 mg/kg; 24 hours before the administration of contrast medium) and subsequent 20-minute irradiation with a xenon lamp.

For `CC(C(=O)NCC(=O)NCCN(CCC(F)(F)C(F)(F)C(F)(F)C(F)(F)C(F)(F)C(F)(F)C(F)(F)C(F)(F)F)C(=O)CO[C@H]1O[C@H](CO)[C@@H](O)[C@H](O)[C@@H]1O)N1CCN(CC(=O)[O-])CCN(CC(=O)[O-])CCN(CC(=O)[O-])CC1.[Gd+3]` (stereo partly drawn) [Example 1, N-{[1,4,7-Tris-(carboxylatomethyl)-1,4,7,10-tetracyclododecane-10-N-(pentanoyl-3-aza-4-oxo-5-methyl-5-yl)]-2-aminoethyl}-N-(1H,1H,2H,2H-perfluorodecyl)-2-(1-O-α-d-mannopyranosyl)-acetamide, Gd Complex], the “signal rise in healthy lymph node tissue (iliac lymph nodes), T1-weighted turbo-spin-echo MR images” value ([1]; 15 to 60 minutes p.i.) was “strong signal rise”, the “enhancement in the primary tumor, MR images” value ([1]; immediately after administration) was “clear enhancement” and the “Relaxivity R1(p) = R1-relaxivity in plasma” value [2] was “R1(p): 25.8 1/(mmol * s)”. For the same compound, the “Gd Content of Blood 24 Hours p.i.” value [3] was 0.7%, the “Elimination Half-Life of Blood” value [3] was 4.8 h and the “LD50 Mouse” value [4] was over 10 mmol/kg. For the same compound, the “Body Retention 14 days” value [5] was 0.0%, the “Relaxivity R1(w) = R1-relaxivity in water” value [6] was “R1(w): 22.7 1/(mmol * s)” and the “signal rise in the arteriosclerotic plaque, T1-weighted inversion-recovery MR images of the aorta” value [7] was “strong signal rise”.
In the case of `COCCOCCOCC(=O)N(CCNC(=O)CNC(=O)C(C)N1CCN(CC(=O)[O-])CCN(CC(=O)[O-])CCN(CC(=O)[O-])CC1)CCC(F)(F)C(F)(F)C(F)(F)C(F)(F)C(F)(F)C(F)(F)C(F)(F)C(F)(F)F.[Gd+3]` (centres unmarked) [Example 5, N-{[1,4,7-Tris-(carboxylatomethyl)-1,4,7,10-tetraazacyclododecane-10-N-(pentanoyl-3-aza-4-oxo-5-methyl-5-yl)]-2-aminoethyl}-N-(1H,1H,2H,2H-perfluorodecyl)-2-[2-(2-methoxyethoxy)-ethoxy]-acetamide, Gd Complex], the “Relaxivity R1(p) = R1-relaxivity in plasma” value [2] is reported as “R1(p): 24.8 1/(mmol * s)”, the “Gd Content of Blood 24 Hours p.i.” value [3] is reported as 0.0% and the “Elimination Half-Life of Blood” value [3] is reported as 0.8 hour hours. For the same compound, the “Body Retention 14 days” value [5] was 0.0%, the “signal rise in the functional lymph node tissue (popliteal lymph nodes), T1-weighted turbo-spin-echo MR images” value [8] was “strong signal rise” and the “Relaxivity R1(w) = R1-relaxivity in water” value [6] was “R1(w): 18.9 1/(mmol * s)”.
With `COCCOCCOCCOCC(=O)N(CCNC(=O)CNC(=O)C(C)N1CCN(CC(=O)[O-])CCN(CC(=O)[O-])CCN(CC(=O)[O-])CC1)CCC(F)(F)C(F)(F)C(F)(F)C(F)(F)C(F)(F)C(F)(F)C(F)(F)C(F)(F)F.[Gd+3]` (centres unmarked) [Example 14, N-{[1,4,7-Tris-(carboxylatomethyl)-1,4,7,10-tetraazacyclododecane-10-N-(pentanoyl-3-aza-4-oxo-5-methyl-5-yl)]-2-aminoethyl}-N-(1H,1H,2H,2H-perfluorodecyl)-2-{-2-[2-(2-methoxyethoxy)-ethoxy]-ethoxy}-acetamide, Gd Complex] the “Relaxivity R1(p) = R1-relaxivity in plasma” value [2] was “R1(p): 25.5 1/(mmol * s)”, the “signal rise in the central necrosis, T1-weighted turbo-spin-echo MR images” value ([9]; 24 hours p.i.) was “delayed signal rise” and the “signal rise in the inflammatorily altered tissue, T1-weighted turbo-spin-echo MR images” value ([9]; up to 60 minutes p.i.) was “strong signal rise”. For the same compound, the “Gd Content of Blood 24 Hours p.i.” value [3] was 0.0%, the “Elimination Half-Life of Blood” value [3] was 1.1 h and the “LD50 Mouse” value [4] was 7.5 mmol/kg. The “Body Retention 14 days” value [5] was 0.0%, the “signal rise in the functional lymph node tissue (popliteal lymph nodes), T1-weighted turbo-spin-echo MR images” value [8] was “strong signal rise” and the “Relaxivity R1(w) = R1-relaxivity in water” value [6] was “R1(w): 18.6 1/(mmol * s)”. For the same compound, the “signal rise in the arteriosclerotic plaque, T1-weighted inversion-recovery MR images of the aorta” value [7] was “strong signal rise”.
For `COCCOCC(=O)N(CCNC(=O)CNC(=O)C(C)N1CCN(CC(=O)[O-])CCN(CC(=O)[O-])CCN(CC(=O)[O-])CC1)CCC(F)(F)C(F)(F)C(F)(F)C(F)(F)C(F)(F)C(F)(F)C(F)(F)C(F)(F)F.[Gd+3]` (centres unmarked) [Example 15, N-{[1,4,7-Tris-(carboxylatomethyl)-1,4,7,10-tetraazacyclododecane-10-N-(pentanoyl-3-aza-4-oxo-5-methyl-5-yl)]-2-aminoethyl}-N-(1H,1H,2H,2H-perfluorodecyl)-2-(2-methoxyethoxy)-acetamide, Gd Complex], the “Relaxivity R1(p) = R1-relaxivity in plasma” value [2] was “R1(p): 24.6 1/(mmol * s)”, the “Gd Content of Blood 24 Hours p.i.” value [3] was 0.2% and the “Elimination Half-Life of Blood” value [3] was 4.8 h. For the same compound, the “LD50 Mouse” value [4] was over 10 mmol/kg, the “Body Retention 14 days” value [5] was 0.0% and the “signal rise in the functional lymph node tissue (popliteal lymph nodes), T1-weighted turbo-spin-echo MR images” value [8] was “strong signal rise”. For the same compound, the “Relaxivity R1(w) = R1-relaxivity in water” value [6] was “R1(w): 17.2 1/(mmol * s)”.
